{
  "source": "patent US20030083374A1",
  "about": "“NAALADase inhibitors useful as pharmaceutical compounds and compositions” (priority 1998, published 2003)",
  "key": {"[1]": {"system": "acetic acid (0.6%) induced writhing", "assay": "acetic acid model of pain (writhing)", "format": "in vivo, mice", "conditions": "pretreated", "from_the_text": "(§1) One source of neuronal glutamate is thought to derive from the abundant neuropeptide NAAG which is hydrolyzed by NAALADase to liberate free glutamate. The inventors hypothesized that inhibition of NAALADase could limit pain by preventing this source of glutamate. To test this hypothesis, the inventors examined the possible antinocipetive effects of several NAALADase inhibitors in the formalin-, acetic acid- and chronic constrictive injury (CCI; “Bennett model”) models of pain. […] On day 7, 5% formalin was injected into the dorsum of the rat's hindpaw."}, "Dunning G tumors": {"system": "Dunning G tumors", "assay": "in vivo cancer assay, Dunning G model, subcutaneous drug delivery", "parameters": "species or system Male Copenhagen syngenic rats", "description": "Male Copenhagen syngenic rats, age 8 to 10 weeks, were injected in both flanks with 10^7 Dunning G cells. […] Controls received 50 mM HEPES s.c. daily. Tumors were measured twice a week.\n(§2) Response to treatment was monitored in two ways. First, mean tumor volume for each group was presented as tumor:control ratio (% T/C) and these values were compared at one point in time. Second, tumor volume versus time was monitored."}, "LNCaP cells": {"system": "LNCaP cells", "conditions": "as the concentration increased; cited from earlier work"}, "[2]": {"system": "Dorsal root ganglia-Schwann cell co-cultures", "assay": "in vitro myelination in dorsal root ganglia-Schwann cell co-cultures", "format": "cell-based", "from_the_text": "The inventors hypothesized that NAALADase may play a role in signaling myelin formation and inhibition of NAALADase may facilitate myelination. To test this hypothesis, the inventors examined the effects of several NAALADase inhibitors in a well established in vitro model system of myelination. Dorsal root ganglia-Schwann cell co-cultures were established as previously described (Einheber et al., J. Cell. Biol., Vol. 123, p. 1223). Following 7 days in co-culture, myelination was initiated following the addition of serum and ascorbic acid with various doses of NAALADase inhibitors (1 nM to 10 μM) or progesterone (20 nM; positive control). The extent of myelination was examined between days 14-21 using immunocytochemical staining for myelin basic protein (MBP), a known myelin marker."}, "[3]": {"system": "formalin-induced flinching behavior", "assay": "formalin model of pain", "format": "in vivo, rats", "conditions": "50 mg/kg i.p. daily for 7 days", "from_the_text": "as §1"}, "[4]": {"system": "hyperalgesia following sciatic nerve constriction", "assay": "chronic constrictive injury (CCI) model of pain", "format": "in vivo, rats", "from_the_text": "as §1\nSciatic nerve ligation, consisting of 4 ligatures being tied loosely around the sciatic nerve at 1 mm intervals proximal to the nerve trifurcation, was performed on rats. […] Animals were habituated to the Hargreaves apparatus and the infrared heat source directed onto the […] surface of the hindpaw and the time taken for the animal to withdraw its paw noted. The difference score (between the latency of the response for the paw on the operated side versus the control side) was determined. […] Normal (unoperated) rats had approximately equal latencies for both paws. This effect was significant starting at 11 days of drug treatment and persisted through to the end of the study (for 21 days of daily dosing)."}, "[5]": {"system": "nicotine self-administration in rats", "conditions": "rat, in vivo; cited from earlier work"}, "[6]": {"system": "stroke-induced extracellular glutamate increases", "conditions": "rats; cited from earlier work"}, "[7]": {"system": "angiogenesis in the Matrigel/bFGF gels", "assay": "in vivo assay of a continuous dosage on angiogenesis (minipump, Matrigel/bFGF)", "parameters": "species or system C57B1 female mice", "description": "Minipumps filled with vehicle (50 mM Hepes) were also implanted at this time. Twenty-four hours later, mice were each injected subcutaneously with 0.5 mL Matrigel™ and the 150 ng/mL of the angiogenic factor, basic FGF (bFGF). Thirteen days post Matrigel™/bFGF injection, the gels were recovered, fixed in formalin and sections were stained with Trichrome-Masson stain."}, "[8]": {"system": "cryolesion of the sciatic nerve", "conditions": "sciatic nerves in mice; cited from earlier work"}, "[9]": {"system": "spinal cord organotypic cultures", "conditions": "cited from earlier work"}, "[10]": {"system": "angiogenesis in Matrigel plugs", "assay": "in vivo assay of daily dosages on angiogenesis (Matrigel plug, bFGF)", "parameters": "species or system C57B1 female mice", "conditions": "3 mg/kg and 30 mg/kg daily s.c., seven days", "description": "The injected Matrigel™ rapidly formed a gel. On the same a day as the Matrigel™ injection, daily subcutaneous injections of Compound 3 around the Matrigel™ plug were initiated. Seven days post Matrigel™ injection, Matrigel™ plugs were excised and histology was performed.\nThe concentrations of the daily dosages as well as the coinciding initial Matrigel™ plug compositions are provided below in TABLE VI."}, "MPTP lesioned mice": {"system": "MPTP lesioned mice", "conditions": "cited from earlier work"}, "[11]": {"system": "cocaine-induced sensitization", "assay": "in vivo behavioral sensitization to cocaine", "parameters": "species or system Male Sprague-Dawley rats", "description": "NAALADase hydrolyzes the abundant neuropeptide NAAG to liberate glutamate (GLU). The inventors hypothesized that inhibition of NAALADase could attenuate sensitization by preventing this source of GLU. […] Male Sprague-Dawley rats received home cage injections of cocaine (20 mg/kg/day×5 days; i.p.) or sale (1.0 ml/kg). […] Cocaine (20 mg/kg)-induced locomotor activity was assessed 3 days later. […]"}, "LNCaP tumors [12]": {"system": "LNCaP tumors", "assay": "in vivo cancer assay, LNCaP model, subcutaneous drug delivery", "parameters": "species or system Ncr nude male mice", "description": "Ncr nude male mice, age 5 to 6 weeks, were injected in the right flank with 5×10^6 LNCaP cells in Matrigel™ (0.1 ml total injection volume). […] Controls received 50 mM HEPES s.c. daily. Once tumors were palpable they were measured twice a week.\nas §2"}, "[13]": {"system": "dynorphin-induced spinal cord injury", "conditions": "co-administered with dynorphin A; by 24-hour post-injection; cited from earlier work"}, "alcohol-preferring rats": {"system": "alcohol-preferring rats", "conditions": "rat, in vivo; cited from earlier work"}, "LNCaP tumors [14]": {"system": "LNCaP tumors", "assay": "in vivo cancer assay, LNCaP model, intratumoral drug delivery", "parameters": "species or system Ncr nude male mice", "description": "Ncr nude male mice, age 5 to 6 weeks, were injected in the right flank with 10^7 LNCaP cells in Matrigel™ (0.1 ml total injection volume). When the tumors reached a predetermined size (50 to 60 mm^3) mice.were randomly placed into treatment groups of 6 to 8 mice each. […] Controls received 50 μl of 50 mM HEPES intratumorally daily. Tumors were measured twice a week.\nas §2"}, "[15]": {"conditions": "50 mg/kg i.p. daily starting 10 days after surgery, day 18"}},
  "data": [
    {"compound": "O=C(O)CCC(CP(=O)(O)O)C(=O)O", "note": "(centres unmarked) [Compound 3, 2-(phosphonomethyl)-pentanedioic acid]", "values": [
      {"measurement": "acetic acid (0.6%) induced writhing vs. vehicle control", "setting": "[1]", "value": "significantly attenuated"},
      {"measurement": "tumor size, % of controls", "setting": "Dunning G tumors; 10 mg/kg s.c. daily", "value": 38, "unit": "%"},
      {"measurement": "tumor size, % of controls", "setting": "Dunning G tumors; 30 mg/kg s.c. daily", "value": 22, "unit": "%"},
      {"measurement": "effect on tumor growth", "setting": "Dunning G tumors; 1 and 3 mg/kg s.c. daily", "value": "no effect on tumor growth"},
      {"measurement": "LNCaP cell proliferation", "setting": "LNCaP cells", "value": "decreased significantly"},
      {"measurement": "immunostaining of MBP", "setting": "[2]; 1 nM, two week treatment", "value": "significant increase"},
      {"measurement": "extent of myelination vs. maximal doses of ascorbic acid and progesterone", "setting": "[2]; high dose, 1 μM", "value": "greater extent of myelination"},
      {"measurement": "effect compared with acute pretreatment with morphine (5 mg/kg)", "setting": "[3]", "value": "more robust"},
      {"measurement": "flinching behavior, early phase", "setting": "[3]; 5% formalin on day 7", "value": "2.5±3"},
      {"measurement": "flinching behavior, late phase", "setting": "[3]; 5% formalin on day 7", "value": "0.5±0.58"},
      {"measurement": "difference scores (thermal pain response)", "setting": "[4]; [15]", "value": "−0.2±1.9"},
      {"measurement": "pain attenuation vs. operated vehicle group", "setting": "[4]; [15]", "value": 98, "unit": "%"},
      {"measurement": "difference scores between the two paws vs. vehicle-treated controls", "setting": "[4]; 50 mg/kg i.p. daily starting 10 days post surgery, significant starting at 11 days, through 21 days of dosing", "value": "dramatically normalized"},
      {"measurement": "cumulative food intakes", "setting": "[5]", "value": "reduced"},
      {"measurement": "nicotine self-administration", "setting": "[5]", "value": "reduced"},
      {"measurement": "concurrent glutamate changes in the parietal cortex", "setting": "[6]", "value": "completely prevented"},
      {"measurement": "stroke-induced extracellular glutamate increases in the striatum", "setting": "[6]", "value": "significantly attenuated"},
      {"measurement": "angiogenic response", "setting": "[7]; 1 μg/day by minipump", "value": "strong angiogenic response"},
      {"measurement": "angiogenesis in the Matrigel/bFGF gels", "setting": "[7]; 10 μg/day and 100 μg/day by minipump", "value": "significantly decreased angiogenesis"},
      {"measurement": "myelin thickness", "setting": "[8]", "value": "increase"},
      {"measurement": "myelinated axon number", "setting": "[8]", "value": "increase"},
      {"measurement": "protection against THA-induced toxicity", "setting": "[9]", "value": "dose-dependent protection"},
      {"measurement": "blood vessels or angiogenesis in the Matrigel plugs", "setting": "[10]", "value": "decrease in blood vessels or angiogenesis"},
      {"measurement": "TH-stained dopaminergic neurons", "setting": "MPTP lesioned mice", "value": "significant recovery"},
      {"measurement": "enhancement of cocaine (20 mg/kg)-induced locomotor activity (sensitization)", "setting": "[11]; 10 and 50 mg/kg, 15 minutes prior to cocaine injections x 5 days, assessed 3 days later", "value": "significantly reduced"},
      {"measurement": "basal locomotor activity or the response to saline", "setting": "[11]; Compound 3 on its own", "value": "did not alter"},
      {"measurement": "tumor growth, % of controls", "setting": "LNCaP tumors [12]; 10 mg/kg s.c. daily, day 86", "value": 24, "unit": "%"},
      {"measurement": "effect on tumor growth", "setting": "LNCaP tumors [12]; 1, 3 and 30 mg/kg s.c. daily", "value": "no effect on tumor growth"},
      {"measurement": "motor scores", "setting": "[13]", "value": "significant improvement"},
      {"measurement": "body weights or 24 hour water intakes", "setting": "alcohol-preferring rats", "value": "without affecting"},
      {"measurement": "ethanol consumption", "setting": "alcohol-preferring rats", "value": "significantly reduced"},
      {"measurement": "Tumor volume", "setting": "LNCaP tumors [14]; after 42 days of treatment, intratumoral 0.025 μg/day", "value": "465.7±176", "unit": "mm^3"},
      {"measurement": "Optimal % T/C", "setting": "LNCaP tumors [14]; intratumoral 0.025 μg/day", "value": 42, "unit": "%"},
      {"measurement": "Regressions", "setting": "LNCaP tumors [14]; intratumoral 0.025 μg/day", "value": "1/7"},
      {"measurement": "Optimal % T/C", "setting": "LNCaP tumors [14]; intratumoral 0.25 μg/day", "value": 51, "unit": "%"},
      {"measurement": "Regressions", "setting": "LNCaP tumors [14]; intratumoral 0.25 μg/day", "value": "1/7"},
      {"measurement": "Optimal % T/C", "setting": "LNCaP tumors [14]; intratumoral 2.5 μg/day", "value": 45, "unit": "%"},
      {"measurement": "Regressions", "setting": "LNCaP tumors [14]; intratumoral 2.5 μg/day", "value": "0/7"},
      {"measurement": "Optimal % T/C", "setting": "LNCaP tumors [14]; intratumoral 25.0 μg/day", "value": 76, "unit": "%"},
      {"measurement": "Regressions", "setting": "LNCaP tumors [14]; intratumoral 25.0 μg/day", "value": "0/7"},
      {"measurement": "tumor growth", "setting": "LNCaP tumors [14]; intratumoral 0.025, 0.25 and 2.5 μg/day", "value": "slowed tumor growth substantially"}
    ]}
  ]
}
